Data as given in patent EP0097439A2, “A crystalline prostaglandin salt” (THE UPJOHN COMPANY, priority 1982, dated 1984).
Where two headings read alike, the source gives them in different places.

Assay: Plasma levels of 9-deoxo-16,16-dimethyl-9-methylene-PGE2 by radioimmunoassay after insertion of a suppository
Assay type: in vivo, Rhesus monkeys (Macaca mulatta)
Details: for concentration at 0.25 h / concentration at 1 h / concentration at 1.5 h / concentration at 2 h / concentration at 3 h / concentration at 4 h / concentration at 6 h / concentration at 24 h / concentration at 0.5 h: rhesus monkey, plasma, 30 mg, read-out: Drug Levels
Description: A. Midtrimester pregnant female Rhesus monkeys (Macaca mulatta) are used. (The first day of menstrual bleeding is designated Day 1 of the menstrual cycle; the first day a female is placed with a male for breeding is designated Day 1 of pregnancy. Pregnancy is confirmed by abdominal palpation of the uterus.)
Blood samples are collected into heparinized syringes at specified times following insertion of a suppository in pregnant or non- pregnant monkeys. Plasma is extracted and assayed for 9-deoxo-16,16-dimethyl-9-methylene-PGE2 content by radioimmunoassay.
C. Six suppository lots are prepared (4), each containing 9- deoxo-16,16-dimethyl-9-methylene-PGE2 or its crystalline potassium salt (Examples 1 and 2). Two lots are made with Witepsol H15 alone as the suppository base, two with Witepsol HIS wax plus 2% colloidal silicon dioxide (CSD) and two with Witepsol H15 plus 2% CSD plus 10% triacetin. Suppositories are prepared using Witepsol H15 suppository wax. Free acid or potassium salt is dispersed in the hot wax using a homogenizer. Two percent colloidal silicon dioxide (CSD) is mixed in by further homogenization. In the third formulation, triacetin (10%) is added before the CSD and then homogenized for one minute. Suppositories are formed in 800 mg aluminum molds and are stored at 4°C until used.
D. The plasma levels of 9-deoxo-16,16-d1methy1-9-methy1ene-PGE2 in monkeys treated with 6 formulations containing either 9-deoxo-16,16-dimethyl-9-methylene-PGE2 free acid or potassium salt are shown in Tables 1-6. In general, higher blood levels are measured in pregnant Rhesus monkeys than in non-pregnant monkeys.

[1] = Monkey #1, 30 mg Free Acid in H15 Suppositories
[2] = Monkey #2, 30 mg Free Acid in H15 Suppositories
[3] = Monkey #3 (pregnant animal with uterine recording), 30 mg Free Acid in H15 Suppositories
[4] = Monkey #7, 30 mg Free Acid in H15 Plus 2% CSD Suppositories
[5] = Monkey #8, 30 mg Free Acid in H15 Plus 2% CSD Suppositories
[6] = Monkey #9 (pregnant animal with uterine recording), 30 mg Free Acid in H15 Plus 2% CSD Suppositories
[7] = Monkey #13, 30 mg Free Acid in H15 Plus 2% CSD + 10% Triacetin Suppositories
[8] = Monkey #14, 30 mg Free Acid in H15 Plus 2% CSD + 10% Triacetin Suppositories
[9] = Monkey #15 (pregnant animal with uterine recording), 30 mg Free Acid in H15 Plus 2% CSD + 10% Triacetin Suppositories

bioavailability (drug plasma levels and uterine activity), free acid versus potassium salt (Rhesus monkeys, 30 mg (acid equivalents) per dose in three suppository formulations): equally bioavailable | concentration at 0.25 h [1]: 5.14 ng/mL | concentration at 1 h (Monkey #1, 1.0 Hours, 30 mg Free Acid in H15 Suppositories): 4.39 ng/mL | concentration at 1.5 h [1]: 7.89 ng/mL | concentration at 2 h (Monkey #1, 2.0 Hours, 30 mg Free Acid in H15 Suppositories): 4.16 ng/mL | concentration at 3 h (Monkey #1, 3.0 Hours, 30 mg Free Acid in H15 Suppositories): 0.23 ng/mL | concentration at 4 h (Monkey #1, 4.0 Hours, 30 mg Free Acid in H15 Suppositories): 7.43 ng/mL | concentration at 6 h (Monkey #1, 6.0 Hours, 30 mg Free Acid in H15 Suppositories): 10.1 ng/mL | concentration at 24 h (Monkey #1, 24.0 Hours, 30 mg Free Acid in H15 Suppositories): 7.68 ng/mL | concentration at 0.5 h (Monkey #1, .5 Hours, 30 mg Free Acid in H15 Suppositories): 1.69 ng/mL | concentration at 0.25 h [2]: 0.61 ng/mL | concentration at 1.5 h [2]: 3.35 ng/mL | concentration at 2 h (Monkey #2, 2.0 Hours, 30 mg Free Acid in H15 Suppositories): 5.56 ng/mL | concentration at 3 h (Monkey #2, 3.0 Hours, 30 mg Free Acid in H15 Suppositories): 13 ng/mL | concentration at 4 h (Monkey #2, 4.0 Hours, 30 mg Free Acid in H15 Suppositories): 14.7 ng/mL | concentration at 6 h (Monkey #2, 6.0 Hours, 30 mg Free Acid in H15 Suppositories): 17.3 ng/mL | concentration at 24 h (Monkey #2, 24.0 Hours, 30 mg Free Acid in H15 Suppositories): 4.97 ng/mL | concentration at 0.25 h [3]: 142 ng/mL | concentration at 1 h (Monkey #3 (pregnant animal with uterine recording), 1.0 Hours, 30 mg Free Acid in H15 Suppositories): 93.9 ng/mL | concentration at 1.5 h [3]: 66.8 ng/mL | concentration at 2 h (Monkey #3 (pregnant animal with uterine recording), 2.0 Hours, 30 mg Free Acid in H15 Suppositories): 60.8 ng/mL | concentration at 3 h (Monkey #3 (pregnant animal with uterine recording), 3.0 Hours, 30 mg Free Acid in H15 Suppositories): 56.1 ng/mL | concentration at 4 h (Monkey #3 (pregnant animal with uterine recording), 4.0 Hours, 30 mg Free Acid in H15 Suppositories): 35.7 ng/mL | concentration at 6 h (Monkey #3 (pregnant animal with uterine recording), 6.0 Hours, 30 mg Free Acid in H15 Suppositories): 13.7 ng/mL | concentration at 24 h (Monkey #3 (pregnant animal with uterine recording), 24.0 Hours, 30 mg Free Acid in H15 Suppositories): 5.67 ng/mL | concentration at 0.5 h (Monkey #3 (pregnant animal with uterine recording), .5 Hours, 30 mg Free Acid in H15 Suppositories): 63.6 ng/mL | concentration at 0.25 h [4]: 39.2 ng/mL | concentration at 0.5 h (Monkey #7, 0.5 Hours, 30 mg Free Acid in H15 Plus 2% CSD Suppositories): 44.5 ng/mL | concentration at 1 h (Monkey #7, 1.0 Hours, 30 mg Free Acid in H15 Plus 2% CSD Suppositories): 63.9 ng/mL | concentration at 1.5 h [4]: 42.2 ng/mL | concentration at 2 h (Monkey #7, 2 Hours, 30 mg Free Acid in H15 Plus 2% CSD Suppositories): 37 ng/mL | concentration at 3 h (Monkey #7, 3 Hours, 30 mg Free Acid in H15 Plus 2% CSD Suppositories): 16.9 ng/mL | concentration at 4 h (Monkey #7, 4 Hours, 30 mg Free Acid in H15 Plus 2% CSD Suppositories): 13.2 ng/mL | concentration at 6 h (Monkey #7, 6 Hours, 30 mg Free Acid in H15 Plus 2% CSD Suppositories): 6.5 ng/mL | concentration at 24 h (Monkey #7, 24 Hours, 30 mg Free Acid in H15 Plus 2% CSD Suppositories): 4.01 ng/mL | concentration at 0.25 h [5]: 51.4 ng/mL | concentration at 0.5 h (Monkey #8, 0.5 Hours, 30 mg Free Acid in H15 Plus 2% CSD Suppositories): 134 ng/mL | concentration at 1 h (Monkey #8, 1.0 Hours, 30 mg Free Acid in H15 Plus 2% CSD Suppositories): 88.2 ng/mL | concentration at 1.5 h [5]: 61.1 ng/mL | concentration at 2 h (Monkey #8, 2 Hours, 30 mg Free Acid in H15 Plus 2% CSD Suppositories): 78.3 ng/mL | concentration at 3 h (Monkey #8, 3 Hours, 30 mg Free Acid in H15 Plus 2% CSD Suppositories): 29.1 ng/mL | concentration at 4 h (Monkey #8, 4 Hours, 30 mg Free Acid in H15 Plus 2% CSD Suppositories): 12.4 ng/mL | concentration at 6 h (Monkey #8, 6 Hours, 30 mg Free Acid in H15 Plus 2% CSD Suppositories): 2.49 ng/mL | concentration at 24 h (Monkey #8, 24 Hours, 30 mg Free Acid in H15 Plus 2% CSD Suppositories): 15.7 ng/mL | concentration at 0.25 h [6]: 60.7 ng/mL | concentration at 0.5 h (Monkey #9 (pregnant animal with uterine recording), 0.5 Hours, 30 mg Free Acid in H15 Plus 2% CSD Suppositories): 52.2 ng/mL | concentration at 1 h (Monkey #9 (pregnant animal with uterine recording), 1.0 Hours, 30 mg Free Acid in H15 Plus 2% CSD Suppositories): 63.1 ng/mL | concentration at 1.5 h [6]: 62.8 ng/mL | concentration at 2 h (Monkey #9 (pregnant animal with uterine recording), 2 Hours, 30 mg Free Acid in H15 Plus 2% CSD Suppositories): 62.9 ng/mL | concentration at 3 h (Monkey #9 (pregnant animal with uterine recording), 3 Hours, 30 mg Free Acid in H15 Plus 2% CSD Suppositories): 40.2 ng/mL | concentration at 4 h (Monkey #9 (pregnant animal with uterine recording), 4 Hours, 30 mg Free Acid in H15 Plus 2% CSD Suppositories): 57.8 ng/mL | concentration at 6 h (Monkey #9 (pregnant animal with uterine recording), 6 Hours, 30 mg Free Acid in H15 Plus 2% CSD Suppositories): 32 ng/mL | concentration at 24 h (Monkey #9 (pregnant animal with uterine recording), 24 Hours, 30 mg Free Acid in H15 Plus 2% CSD Suppositories): 21 ng/mL | concentration at 0.25 h [7]: 12.6 ng/mL | concentration at 0.5 h (Monkey #13, 0.5 Hours, 30 mg Free Acid in H15 Plus 2% CSD + 10% Triacetin Suppositories): 9.25 ng/mL | concentration at 1 h (Monkey #13, 1 Hours, 30 mg Free Acid in H15 Plus 2% CSD + 10% Triacetin Suppositories): 2.8 ng/mL | concentration at 1.5 h [7]: 3.09 ng/mL | concentration at 2 h (Monkey #13, 2 Hours, 30 mg Free Acid in H15 Plus 2% CSD + 10% Triacetin Suppositories): 5.46 ng/mL | concentration at 3 h (Monkey #13, 3 Hours, 30 mg Free Acid in H15 Plus 2% CSD + 10% Triacetin Suppositories): 15.1 ng/mL | concentration at 4 h (Monkey #13, 4 Hours, 30 mg Free Acid in H15 Plus 2% CSD + 10% Triacetin Suppositories): 22.5 ng/mL | concentration at 6 h (Monkey #13, 6 Hours, 30 mg Free Acid in H15 Plus 2% CSD + 10% Triacetin Suppositories): 23.8 ng/mL | concentration at 24 h (Monkey #13, 24 Hours, 30 mg Free Acid in H15 Plus 2% CSD + 10% Triacetin Suppositories): 26 ng/mL | concentration at 0.25 h [8]: 18.8 ng/mL | concentration at 0.5 h (Monkey #14, 0.5 Hours, 30 mg Free Acid in H15 Plus 2% CSD + 10% Triacetin Suppositories): 36 ng/mL | concentration at 1 h (Monkey #14, 1 Hours, 30 mg Free Acid in H15 Plus 2% CSD + 10% Triacetin Suppositories): 25.1 ng/mL | concentration at 1.5 h [8]: 32 ng/mL | concentration at 2 h (Monkey #14, 2 Hours, 30 mg Free Acid in H15 Plus 2% CSD + 10% Triacetin Suppositories): 28.7 ng/mL | concentration at 3 h (Monkey #14, 3 Hours, 30 mg Free Acid in H15 Plus 2% CSD + 10% Triacetin Suppositories): 20.2 ng/mL | concentration at 4 h (Monkey #14, 4 Hours, 30 mg Free Acid in H15 Plus 2% CSD + 10% Triacetin Suppositories): 16.6 ng/mL | concentration at 6 h (Monkey #14, 6 Hours, 30 mg Free Acid in H15 Plus 2% CSD + 10% Triacetin Suppositories): 16.2 ng/mL | concentration at 24 h (Monkey #14, 24 Hours, 30 mg Free Acid in H15 Plus 2% CSD + 10% Triacetin Suppositories): 12.9 ng/mL | concentration at 0.25 h [9]: 119 ng/mL | concentration at 0.5 h (Monkey #15 (pregnant animal with uterine recording), 0.5 Hours, 30 mg Free Acid in H15 Plus 2% CSD + 10% Triacetin Suppositories): 154 ng/mL | concentration at 1 h (Monkey #15 (pregnant animal with uterine recording), 1 Hours, 30 mg Free Acid in H15 Plus 2% CSD + 10% Triacetin Suppositories): 154 ng/mL | concentration at 1.5 h [9]: 26.8 ng/mL | concentration at 2 h (Monkey #15 (pregnant animal with uterine recording), 2 Hours, 30 mg Free Acid in H15 Plus 2% CSD + 10% Triacetin Suppositories): 44.8 ng/mL | concentration at 3 h (Monkey #15 (pregnant animal with uterine recording), 3 Hours, 30 mg Free Acid in H15 Plus 2% CSD + 10% Triacetin Suppositories): 65.9 ng/mL | concentration at 4 h (Monkey #15 (pregnant animal with uterine recording), 4 Hours, 30 mg Free Acid in H15 Plus 2% CSD + 10% Triacetin Suppositories): 22.1 ng/mL | concentration at 6 h (Monkey #15 (pregnant animal with uterine recording), 6 Hours, 30 mg Free Acid in H15 Plus 2% CSD + 10% Triacetin Suppositories): 13 ng/mL | concentration at 24 h (Monkey #15 (pregnant animal with uterine recording), 24 Hours, 30 mg Free Acid in H15 Plus 2% CSD + 10% Triacetin Suppositories): 2.76 ng/mL
SMILES: C=C1C[C@@H](O)[C@H](/C=C/[C@@H](O)C(C)(C)CCCC)[C@H]1C/C=C\CCCC(=O)O [Free Acid, 9-deoxo-16,16-dimethyl-9-methylene-PGE2]
